Like-named read-outs stand apart in the source and are kept apart here.
Tests used:
[1] = Plasma PK of major maoto compounds by LC-MS/MS after oral administration of maoto; assay type: in vivo, rat
Description: 1 (7:00-19:00). Rats were maintained and used for the experiments in accordance
2 with the Guidelines for the Care and Use of Laboratory Animals of Tsumura &
3 CO. All experimental procedures were carried out upon approval from the
4 Laboratory Animal Committee of Tsumura & CO.
8 administered to 16-h fasted rats (n=3). […]
14 and 4 g/10mL/kg) were determined by LC-MS/MS. Based on a literature search,
16 amygdalin, prunasin, scopoletin, l-ephedrine, d-pseudoephedrine,
1 Plasma PK data were analyzed by noncompartmental modeling using
2 Phoenix WinNonlin (version 6.3, Certara L.P., St. Louis, MO, USA) to determine
3 various PK constants including Cmax, tmax, t1/2, and AUC0–last. The t1/2 was divided
4 by loge2/ke, where ke is the rate constant of terminal elimination (at least three
5 data points on the descending linear limb). […]

[2] = assay type: in vivo, rat
Description: Distilled water and saline were administered as vehicle to rats in each control group. […] Plasma cytokine levels were measured by ELISA or multiplex immunoassay; common metabolites and lipid mediators were analyzed by GC-MS/MS and LC-MS/MS, respectively.
Pathway maps of lipid mediators were created by using CellDesigner 4.4 software (http://www.celldesigner.org). We evaluated the effects of the treatments on specific lipid mediators and categorized them according to COX, CYP and LOX pathways by Fisher’s exact test. The proinflammatory and anti-inflammatory indices were analyzed as described by Tam et al. with modification.[22]

[3] = Sprague-Dawley, rat, plasma, po, 1 g/kg
[4] = Sprague-Dawley, rat, plasma, po, 1 g/kg, read-out: Cmax
[5] = Sprague-Dawley, rat, plasma, po, 1 g/kg, read-out: Tmax
[6] = Sprague-Dawley, rat, plasma, po, 2 g/kg
[7] = Sprague-Dawley, rat, plasma, po, 2 g/kg, read-out: Cmax
[8] = Sprague-Dawley, rat, plasma, po, 2 g/kg, read-out: Tmax
[9] = Sprague-Dawley, rat, plasma, po, 4 g/kg
[10] = Sprague-Dawley, rat, plasma, po, 4 g/kg, read-out: Cmax
[11] = Sprague-Dawley, rat, plasma, po, 4 g/kg, read-out: Tmax
[12] = PM/P (polyI:C+maoto vs polyI:C), 2h
[13] = PM/P (polyI:C+maoto vs polyI:C), 4h

Compound | AUC(0-t) [1, 3] [ng·h/mL] | Cmax [1, 4] [ng/mL] | Tmax [1, 5] [h] | AUC(0-t) [1, 6] [ng·h/mL] | Cmax [1, 7] [ng/mL] | AUC(0-t) [1, 9] [ng·h/mL] | Cmax [1, 10] [ng/mL] | Tmax [1, 11] [h] | log2FC of plasma level ([2]; M/C (maoto vs control), 2h) | log2FC of plasma level ([2]; M/C (maoto vs control), 4h) | log2FC of plasma level ([2]; P/C (polyI:C vs control), 2h) | log2FC of plasma level ([2]; P/C (polyI:C vs control), 4h) | log2FC of plasma level [2, 12] | log2FC of plasma level [2, 13] | other results
CC(C(O)c1ccccc1)N(C)C (racemic) [dl-Methylephedrine] | 18.7 | 16.6 | 0.25 | 46 | 22.5 | 94.9 | 37 | 0.25 |  |  |  |  |  |  | half-life [1, 3]: 5.96 h; half-life [1, 6]: 1.99 h; Tmax [1, 8]: 0.25 h; half-life [1, 9]: 11.5 h
O=c1ccc2ccc(O)cc2o1 [7-hydroxycoumarin] |  |  |  |  |  |  |  |  |  |  |  |  |  |  | detection in rat plasma by targeted LC-MS/MS ([1]; oral maoto 2 g/kg): not detected; AUClast ([1]; rat plasma, oral maoto 1 g/kg): BQL; Cmax ([1]; rat plasma, oral maoto 1 g/kg): BQL; AUClast ([1]; rat plasma, oral maoto 2 g/kg): BQL; Cmax ([1]; rat plasma, oral maoto 2 g/kg): BQL; AUClast ([1]; rat plasma, oral maoto 4 g/kg): BQL; Cmax ([1]; rat plasma, oral maoto 4 g/kg): BQL
O=C(O)CCC/C=C\C/C=C\C/C=C\C/C=C\CCCCCO [20-HETE] |  |  |  |  |  |  |  |  | 0.51 | -0.20 | -0.23 | 0.52 | 0.70 | 0.06 | 
O=C(O)CCC/C=C\C/C=C\C/C=C\C/C=C\CCCCC(=O)O [20-carboxy-AA] |  |  |  |  |  |  |  |  | 0.40 | 0.17 | 0.03 | 0.32 | 0.28 | 0.00 | 
Oc1cc(O)c2c(c1)O[C@H](c1ccc(O)c(O)c1)[C@@H](O)C2 [(+)-Catechin] |  |  |  |  |  |  |  |  |  |  |  |  |  |  | AUClast ([1]; rat plasma, oral maoto 1 g/kg): BQL; Cmax ([1]; rat plasma, oral maoto 1 g/kg): BQL; AUClast ([1]; rat plasma, oral maoto 2 g/kg): 0.111 ng·h/mL; Cmax ([1]; rat plasma, oral maoto 2 g/kg): 0.443 ng/mL; Tmax ([1]; rat plasma, oral maoto 2 g/kg): 1.00 h; AUClast ([1]; rat plasma, oral maoto 4 g/kg): 1.71 ng·h/mL; Cmax ([1]; rat plasma, oral maoto 4 g/kg): 3.75 ng/mL; Tmax ([1]; rat plasma, oral maoto 4 g/kg): 0.250 h
CCCCC/C=C\C/C=C\C/C=C\C/C=C\CCCC(=O)O [AA, arachidonic acid] |  |  |  |  |  |  |  |  | 0.19 | -0.02 | 0.12 | 0.14 | -0.10 | -0.04 | 
N#C[C@H](O[C@@H]1O[C@H](CO[C@@H]2O[C@H](CO)[C@@H](O)[C@H](O)[C@H]2O)[C@@H](O)[C@H](O)[C@H]1O)c1ccccc1 [Amygdalin] | 346 | 101 | 0.25 | 1520 | 653 | 7610 | 5250 | 0.25 |  |  |  |  |  |  | half-life [1, 3]: 1.31 h; half-life [1, 6]: 0.937 h; Tmax [1, 8]: 1 h; half-life [1, 9]: 2.47 h
O=C(O)/C=C/c1ccccc1 [Cinnamic acid] | 624 | 1060 |  | 2060 | 1280 | 5750 | 2120 |  |  |  |  |  |  |  | half-life [1, 6]: 1.3 h; half-life [1, 9]: 1.64 h
CC/C=C\C/C=C\C/C=C\C/C=C\C/C=C\C/C=C\CCC(=O)O [DHA, docosahexaenoic acid] |  |  |  |  |  |  |  |  | 0.46 | -0.10 | 0.22 | 0.09 | 0.05 | 0.03 | 
CC/C=C\C/C=C\C/C=C\C/C=C\C/C=C\CCCC(=O)O [EPA, eicosapentaenoic acid] |  |  |  |  |  |  |  |  | 0.56 | -0.10 | 0.28 | -0.05 | 0.04 | 0.03 | 
Oc1cc(O)c2c(c1)O[C@H](c1ccc(O)c(O)c1)[C@H](O)C2 [Epicatechin] | 4.24 | 1.82 | 0.5 | 2.78 | 1.95 | 6.92 | 8.34 | 0.25 |  |  |  |  |  |  | half-life [1, 3]: 5.05 h; half-life [1, 6]: 2.03 h; Tmax [1, 8]: 0.25 h; half-life [1, 9]: 3.49 h
Oc1cc(O)c2c(c1)O[C@H](c1cc(O)c(O)c(O)c1)[C@H](O)C2 [Epigallocatechin] | 0.457 | 0.197 | 0.5 | 0.26 | 0.103 | 0.286 | 0.456 | 0.25 |  |  |  |  |  |  | half-life [1, 3]: 5.23 h; half-life [1, 6]: 3.16 h; Tmax [1, 8]: 0.5 h; half-life [1, 9]: 0.834 h
COc1c(CC=C(C)C)c(O)cc2oc(=O)c(-c3ccc(O)cc3O)cc12 [Glycycoumarin] | 0.0105 | 0.0836 | 0.25 | 0.0227 | 0.0906 | 0.058 | 0.0753 | 0.25 |  |  |  |  |  |  | Tmax [1, 8]: 1 h
CC1(C)[C@@H](O)CC[C@]2(C)[C@H]3C(=O)C=C4[C@@H]5C[C@@](C)(C(=O)O)CC[C@]5(C)CC[C@@]4(C)[C@]3(C)CC[C@@H]12 [Glycyrrhetinic acid] | 2240 | 234 | 8 | 4510 | 373 | 3950 | 301 | 8 |  |  |  |  |  |  | Tmax ([1]; rat plasma, oral maoto 2 g/kg): 10 h
O=C(/C=C/c1ccc(O)cc1)c1ccc(O)cc1O [Isoliquiritigenin] | 19.8 | 10.4 | 0.25 | 31 | 10.1 | 58.9 | 7.59 | 0.25 |  |  |  |  |  |  | half-life [1, 6]: 11.1 h; Tmax [1, 8]: 0.25 h; half-life [1, 9]: 3.61 h; t1/2 ([1]; rat plasma, oral maoto 1 g/kg): 3.42 h
CCCCC/C=C\C\C=C/C=C/C=C/[C@@H](SC[C@H](N)C(=O)O)[C@@H](O)CCCC(=O)O [LTE4] |  |  |  |  |  |  |  |  | -0.95 | -1.00 | 1.04 | 0.58 | -0.91 | -0.51 | 
CCCCC/C=C\C\C=C/C=C/C=C/[C@@H](SCC(NC(C)=O)C(=O)O)[C@@H](O)CCCC(=O)O (stereo partly shown) [N-acetyl-LTE4] |  |  |  |  |  |  |  |  | -1.85 | -1.41 | 2.21 | 1.28 | -2.45 | -0.96 | 
CCCCC[C@H](O)/C=C/[C@H]1C(=O)C[C@H](O)[C@@H]1C/C=C\CCCC(=O)O [PGD2] |  |  |  |  |  |  |  |  | -0.26 | -0.58 | 0.28 | 0.92 | -0.11 | -1.25 | 
CC/C=C\C[C@H](O)/C=C/[C@H]1C(=O)C[C@H](O)[C@@H]1C/C=C\CCCC(=O)O [PGD3] |  |  |  |  |  |  |  |  |  |  |  |  |  |  | log2FC of plasma level [2]: -0.55; log2FC of plasma level ([2]; first value of an incomplete line, time (2h or 4h) not assignable): -0.03
CCCCC[C@H](O)/C=C/[C@H]1[C@H](O)CC(=O)[C@@H]1C/C=C\CCCC(=O)O [PGE2] |  |  |  |  |  |  |  |  | -0.31 | 0.22 | 0.59 | 0.59 | -0.15 | 0.22 | 
CCCCC[C@H](O)/C=C/[C@@H]1[C@@H](C/C=C\CCCC(=O)O)[C@@H](O)C[C@H]1O [PGF2α] |  |  |  |  |  |  |  |  | 0.30 | -0.20 | 0.24 | -0.04 | 0.14 | -0.13 | 
CCCCC[C@H](O)/C=C/[C@H]1OC(O)C[C@H](O)[C@@H]1C/C=C\CCCC(=O)O (stereo partly shown) [TXB2] |  |  |  |  |  |  |  |  | 1.36 | -0.87 | 0.70 | 0.28 | 0.92 | -0.46 | 

— article PMC5654968 (NPJ Systems Biology and Applications, 2017)
